“Also recorded” adds a separate entry of the source.
What was measured:
Pde6α^D670G mice [1] = assay: Histological analysis of outer nuclear layer (ONL) thickness by number of photoreceptor cell nuclei; assay type: in vivo, mouse; settings: vs untreated Pde6α^D670G mice, one month of age
Procedure: Histology—Mice were sacrificed and the eyes enucleated as previously described (19). Eyes were embedded in paraffin, sectioned, and stained with hematoxylin and eosin by Exaclibur Pathology, Inc. (Norman, OK), before being visualized by light microscopy (Leica DM 5000B, Leica Microsystems, Germany). Quantification of photoreceptor nuclei was conducted on several sections that contained the optic nerve, as follows: the distance between the optic nerve and the ciliary body was divided into four, approximately equal, quadrants. Three columns of nuclei (how many cell nuclei thick) were counted within each single quadrant. These counts were then used to determine the average thickness of the ONL for each individual animal at each time. Sectioning proceeded along the long axis of the segment, so that each section contained upper and lower retina as well as the posterior pole.
Gene ontology (GO) analysis was also performed in PANTHER.

Pde6α^D670G mice [2] = assay: Electroretinography (ERG) of treated Pde6α^D670G arRP mice; settings: vs untreated Pde6α^D670G mice, one month of age
Procedure: Mouse lines and husbandry—C57BL/6J-Pde6α^nmf363/nmf363, with a D670G mutation, herein referred to as Pde6α^D670G, mice were obtained from the Jackson Laboratory (Bar Harbor, ME, USA). Pde6α^D670G are co-isogenic in the C57BL/6J (B6) background; therefore, age-matched B6 mice were used as experimental controls. Mice were bred and maintained at the facilities of Columbia University and Stanford University. Animals were kept on a light-dark cycle (12 hour-12 hour). Food and water were available ad libitum throughout the experiment, whether treated or untreated. Dark-raising was performed under 24 hr dark cycle following approved institutional guidelines. […] All water bottles were covered in foil to reduce light exposure and changed weekly during the duration of the experiment following approved institutional guidelines.
Electroretinography (ERG)—Mice were dark-adapted overnight, manipulations were conducted under dim red-light illumination, and recordings were made using Espion or Celeris ERG Diagnosys equipment (Diagnosys LLL, Littleton, MA, USA) as previously described. Briefly, adult B6 control mice were tested at the beginning of each session to ensure equal readouts from the electrodes for both eyes before testing the experimental mice. Pupils were dilated using topical 2.5% phenylephrine hydrochloride and 1% tropicamide (Akorn Inc., Lakeforest, IL, USA). Mice were anesthetized by intraperitoneal injection of 0.1 ml/10 g body weight of anesthesia [1 ml ketamine 100 mg/ml (Ketaset III, Fort Dodge, IA, USA) and 0.1 ml xylazine 20 mg/ml (Lloyd Laboratories, Shenandoah, IA, USA) in 8.9 ml PBS]. Body temperature was maintained at 37° C. during the procedure. Both eyes were recorded simultaneously and responses were averaged for each trial. Responses were taken from the Espion/Celeris readout in microvolts.
Statistical and bioinformatics analysis—Results were also saved in Excel as .txt format and were uploaded into the Partek Genomics Suite 6.5 software package as described previously (5-9). The data was normalized to log base 2 and compared using 1-way ANOVA analysis. All proteins with non-significant (p>0.05) changes were eliminated from the table. The significant values were mapped using the ‘cluster based on significant genes’ visualization function with the standardization option chosen. […] Differences in experimental groups were determined by the Student's t-test as appropriate, or by one-way ANOVA followed by Tukey's post-hoc multiple comparison's test. p values <0.05 were considered significant. For ERG and histological analysis of mouse eyes, differences were determined by the Student's t-test as appropriate, or by one-way ANOVA followed by Tukey's post-hoc multiple comparison's test. p values<0.05 were considered significant.

SMILES	thickness of the outer nuclear layer (ONL) by number of photoreceptor cell nuclei (Pde6α^D670G mice [1])	maximum scotopic a-wave response, quantification of ERGs from a cohort of mice (Pde6α^D670G mice [2])	maximum scotopic b-wave response, quantification of ERGs from a cohort of mice (Pde6α^D670G mice [2])	rod photoreceptor cell response, quantification of ERGs from a cohort of mice (Pde6α^D670G mice [2])	rod photoreceptor cell response, scotopic 0.1 dim-light rod-specific ERG (representative traces) (Pde6α^D670G mice [2]; vitamins 2.5 g/L or alpha-ketoglutarate 10 g/L in drinking water from P0, ketogenic diet from P21)
O=C(O)CCC(=O)C(=O)O [alpha-ketoglutarate, Alpha-ketoglutaric acid]	significant rescue of photoreceptor cells and their inner/outer segments; also recorded: significant increase in the thickness of the outer nuclear layer (ONL)				
NC(=O)c1cccnc1 [vitamin B3, Nicotinamide]		no significant visual rescue	no significant visual rescue	no significant visual rescue	increased rod photoreceptor functional response

— patent publication US12558336B2, “Metabolic rescue of retinal degeneration” (The Board of Trustees of the Leland Stanford Junior …, priority 2019, dated 2026)
